# According to US20020103084A1, “Soybean derived pesticide” (priority 2000, published 2002):
# Test system: Persia mites
# Assay: Spray on avocado trees infested with Persia mites
# Assay type: in vivo
# Details: Example 14, diluted 200 times water
# Experimental: Soybean extract and soybean slurry prepared as described above are used in the following examples. Many of the following examples involve spraying solutions onto leaves. The amount sprayed in the subsequent examples is quantified as spraying an amount sufficient to totally wet the plant or leaf surface.
# The prepared concentrated insecticide is then diluted with 100 times water and thereafter sprayed onto avocado trees infested with Persia mites. A control sample using water was also tested. The results are as follows:
# The effectiveness of soybean extract (Sample I) sprayed upon avocado leaves infested with Persia mites is evaluated. Sample I is diluted at both 100 times and 500 times water and thereafter sprayed onto avocado trees infested with Persia mites. A control sample using water was also tested. The results are as follows:
# The same samples used in Example 5 are also used in testing effectiveness for control of mites. The samples are diluted with 100 times water and sprayed onto avocado trees infested with Persia mites. Two controls were used: the first, pure water; and, the second, clove oil diluted 100 times with water. The test results are as the following:
# The same samples used in Example 7 are also used in testing the control of mites. The samples are diluted with 100 times water and sprayed onto avocado trees infested with Persia mites. The test results are as the following: […]
compound,measurement,setting,value
"O=C/C=C/c1ccccc1 [Cinnamic Aldehyde, cinnamic aldehyde]",Mortality (%),6 days after spray,57.3%
same,No. Mites 6 Days After Spray,"average number of mites per leaf, avocado trees",10.8
